Measured values published in patent publication US20250271426A1, “REDUCTION OF BITTER TASTE OF ACTIVE PHARMACEUTICAL INGREDIENTS AND RELATED ASSAYS AND SCREENING METHODS” (Firmenich Incorporated, priority 2022, published 2025).

Tests used:
Assay in all cases: FLIPR calcium assay, cells with promiscuous G protein transfected with bitter receptor cDNA
Format in all cases: cell-based
Conditions in all cases: responsive if cellular response of >10% over baseline, Fluo4-AM
[1] = target: T1, T2R receptor SEQ ID NO: 4 (S4) (Homo sapiens, UniProt Q9NYV8)
T1 construct: expressed in transfected cells; host or cells: cells expressing a promiscuous G protein (e.g., G16g44)
T1 sequence (Q9NYV8 1-317): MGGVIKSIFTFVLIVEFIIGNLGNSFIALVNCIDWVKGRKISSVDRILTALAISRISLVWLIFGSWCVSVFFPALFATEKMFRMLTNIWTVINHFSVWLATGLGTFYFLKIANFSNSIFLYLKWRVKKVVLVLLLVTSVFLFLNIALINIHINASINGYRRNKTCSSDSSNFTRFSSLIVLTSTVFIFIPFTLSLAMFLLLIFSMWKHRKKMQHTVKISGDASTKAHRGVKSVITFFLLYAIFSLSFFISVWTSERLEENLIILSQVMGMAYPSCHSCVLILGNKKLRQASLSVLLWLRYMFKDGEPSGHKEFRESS
Summary of the method: (§1)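 Fluo4-AM calcium imaging on FLIPR, agonist added during recording. Host: G16g44 cells, one receptor cDNA per transfection, 28 h culture. Activity cutoff >10% over baseline.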

[2] = target: T2, T2R receptor SEQ ID NO: 1 (S1) (Homo sapiens, UniProt Q9NYW7)
T2 construct: expressed in transfected cells; host or cells: cells expressing a promiscuous G protein (e.g., G16g44)
T2 sequence (Q9NYW7 1-299): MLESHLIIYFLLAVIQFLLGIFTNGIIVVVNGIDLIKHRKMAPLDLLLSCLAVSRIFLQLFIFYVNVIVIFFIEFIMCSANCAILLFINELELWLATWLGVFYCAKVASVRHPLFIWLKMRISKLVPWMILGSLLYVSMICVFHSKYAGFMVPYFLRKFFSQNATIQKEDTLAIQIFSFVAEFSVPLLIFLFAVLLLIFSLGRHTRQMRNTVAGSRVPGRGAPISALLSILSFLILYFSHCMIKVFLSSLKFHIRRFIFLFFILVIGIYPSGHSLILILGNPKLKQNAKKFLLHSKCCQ
Summary of the method: as §1

[3] = target: T3, T2R receptor SEQ ID NO: 2 (S2) (Homo sapiens, UniProt Q9NYW2)
T3 construct: expressed in transfected cells; host or cells: cells expressing a promiscuous G protein (e.g., G16g44)
T3 sequence (Q9NYW2 1-309): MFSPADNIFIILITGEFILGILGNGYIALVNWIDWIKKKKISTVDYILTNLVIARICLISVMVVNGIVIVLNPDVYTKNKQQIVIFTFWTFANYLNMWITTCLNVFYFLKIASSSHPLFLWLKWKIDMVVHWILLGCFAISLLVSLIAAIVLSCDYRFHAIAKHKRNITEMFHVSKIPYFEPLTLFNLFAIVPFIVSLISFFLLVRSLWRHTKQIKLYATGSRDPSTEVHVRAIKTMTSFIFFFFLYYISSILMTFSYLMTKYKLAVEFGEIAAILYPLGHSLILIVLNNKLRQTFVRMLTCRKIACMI
Summary of the method: as §1

[4] = target: T4, T2R receptor SEQ ID NO: 3 (S3) (Homo sapiens, UniProt Q9NYW0, T156M)
T4 construct: expressed in transfected cells; host or cells: cells expressing a promiscuous G protein (e.g., G16g44)
T4 sequence (Q9NYW0 1-307 T156M): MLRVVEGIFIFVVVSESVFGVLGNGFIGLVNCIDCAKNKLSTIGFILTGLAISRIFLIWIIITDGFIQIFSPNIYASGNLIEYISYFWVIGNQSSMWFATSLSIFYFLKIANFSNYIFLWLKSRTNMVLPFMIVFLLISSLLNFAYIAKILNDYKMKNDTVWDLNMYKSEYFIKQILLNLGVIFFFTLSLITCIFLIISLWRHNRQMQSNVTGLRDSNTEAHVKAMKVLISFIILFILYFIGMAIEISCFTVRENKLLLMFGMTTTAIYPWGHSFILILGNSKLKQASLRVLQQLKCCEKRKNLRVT
Summary of the method: as §1

[5] = target: T5, T2R receptor SEQ ID NO: 6 (S6) (Homo sapiens, UniProt P59540)
T5 construct: expressed in transfected cells; host or cells: cells expressing a promiscuous G protein (e.g., G16g44)
T5 sequence (P59540 1-309): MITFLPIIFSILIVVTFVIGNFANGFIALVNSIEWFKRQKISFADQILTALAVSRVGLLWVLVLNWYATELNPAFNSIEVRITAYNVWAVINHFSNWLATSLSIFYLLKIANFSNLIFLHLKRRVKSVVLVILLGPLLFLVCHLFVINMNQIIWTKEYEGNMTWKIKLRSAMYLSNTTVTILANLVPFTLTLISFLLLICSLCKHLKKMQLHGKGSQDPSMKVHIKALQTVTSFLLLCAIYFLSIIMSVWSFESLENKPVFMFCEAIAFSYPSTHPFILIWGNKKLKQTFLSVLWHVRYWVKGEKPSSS
Summary of the method: as §1

[6] = target: T6, T2R receptor SEQ ID NO: 5 (S5) (Homo sapiens, UniProt P59534)
T6 construct: expressed in transfected cells; host or cells: cells expressing a promiscuous G protein (e.g., G16g44)
T6 sequence (P59534 18-338): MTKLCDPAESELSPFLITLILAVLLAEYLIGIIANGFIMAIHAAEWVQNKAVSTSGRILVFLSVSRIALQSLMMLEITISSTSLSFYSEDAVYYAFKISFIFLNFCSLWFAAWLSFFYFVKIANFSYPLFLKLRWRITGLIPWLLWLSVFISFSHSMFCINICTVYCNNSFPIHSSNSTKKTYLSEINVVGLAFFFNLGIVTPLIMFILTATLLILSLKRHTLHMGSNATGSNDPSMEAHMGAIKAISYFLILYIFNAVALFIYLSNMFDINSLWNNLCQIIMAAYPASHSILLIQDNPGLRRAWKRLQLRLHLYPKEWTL
Summary of the method: as §1

Row | Compound | S4 positive response of T2R receptor to API [1] | S1 positive response of T2R receptor to API [2] | S2 positive response of T2R receptor to API [3] | S3 positive response of T2R receptor to API [4] | S6 positive response of T2R receptor to API [5] | S5 positive response of T2R receptor to API [6]
1 | COc1ccc([C@@H]2Sc3ccccc3N(CCN(C)C)C(=O)[C@@H]2OC(C)=O)cc1 [Diltiazem] | + (a “+” to indicate whether a particular T2R receptor showed a positive response to a particular API) | + (a “+” to indicate whether a particular T2R receptor showed a positive response to a particular API) | + (a “+” to indicate whether a particular T2R receptor showed a positive response to a particular API) | + (a “+” to indicate whether a particular T2R receptor showed a positive response to a particular API) | + (a “+” to indicate whether a particular T2R receptor showed a positive response to a particular API) | –
2 | CCN[C@H]1C[C@H](C)S(=O)(=O)c2sc(S(N)(=O)=O)cc21 [Dorzolamide] | – | + (a “+” to indicate whether a particular T2R receptor showed a positive response to a particular API) | + (a “+” to indicate whether a particular T2R receptor showed a positive response to a particular API) | + (a “+” to indicate whether a particular T2R receptor showed a positive response to a particular API) | + (a “+” to indicate whether a particular T2R receptor showed a positive response to a particular API) | –
3 | COc1ccc2nc([S@@+]([O-])Cc3ncc(C)c(OC)c3C)[nH]c2c1 [Esomeprazole] | + (a “+” to indicate whether a particular T2R receptor showed a positive response to a particular API) | – | + (a “+” to indicate whether a particular T2R receptor showed a positive response to a particular API) | + (a “+” to indicate whether a particular T2R receptor showed a positive response to a particular API) | + (a “+” to indicate whether a particular T2R receptor showed a positive response to a particular API) | –
4 | C[C@]12C=CC(=O)C=C1CC[C@@H]1[C@@H]2C(=O)C[C@@]2(C)[C@H]1CC[C@]2(O)C(=O)CO [Prednisone] | + (a “+” to indicate whether a particular T2R receptor showed a positive response to a particular API) | + (a “+” to indicate whether a particular T2R receptor showed a positive response to a particular API) | + (a “+” to indicate whether a particular T2R receptor showed a positive response to a particular API) | + (a “+” to indicate whether a particular T2R receptor showed a positive response to a particular API) | + (a “+” to indicate whether a particular T2R receptor showed a positive response to a particular API) | –
5 | COc1cc(Cc2cnc(N)nc2N)cc(OC)c1OC [Trimethoprim] | – | – | + (a “+” to indicate whether a particular T2R receptor showed a positive response to a particular API) | + (a “+” to indicate whether a particular T2R receptor showed a positive response to a particular API) | + (a “+” to indicate whether a particular T2R receptor showed a positive response to a particular API) | + (a “+” to indicate whether a particular T2R receptor showed a positive response to a particular API)
6 | CCN[C@H]1CN(CCCOC)S(=O)(=O)c2sc(S(N)(=O)=O)cc21 [Brinzolamide] | – | + (a “+” to indicate whether a particular T2R receptor showed a positive response to a particular API) | + (a “+” to indicate whether a particular T2R receptor showed a positive response to a particular API) | + (a “+” to indicate whether a particular T2R receptor showed a positive response to a particular API) | + (a “+” to indicate whether a particular T2R receptor showed a positive response to a particular API) | –
7 | CCCCC(CC)COC(=O)CC(C(=O)OCC(CC)CCCC)S(=O)(=O)O (centres unmarked) [Docusate] | + (a “+” to indicate whether a particular T2R receptor showed a positive response to a particular API) | + (a “+” to indicate whether a particular T2R receptor showed a positive response to a particular API) | + (a “+” to indicate whether a particular T2R receptor showed a positive response to a particular API) | – | – | –
8 | CC[C@H]1OC(=O)[C@H](C)[C@@H](O[C@H]2C[C@@](C)(OC)[C@@H](O)[C@H](C)O2)[C@H](C)[C@@H](O[C@@H]2O[C@H](C)C[C@H](N(C)C)[C@H]2O)[C@](C)(O)C[C@@H](C)C(=O)[C@H](C)[C@@H](O)[C@]1(C)O [Erythromycin] | – | – | + (a “+” to indicate whether a particular T2R receptor showed a positive response to a particular API) | + (a “+” to indicate whether a particular T2R receptor showed a positive response to a particular API) | + (a “+” to indicate whether a particular T2R receptor showed a positive response to a particular API) | + (a “+” to indicate whether a particular T2R receptor showed a positive response to a particular API)
9 | CN1[C@@H]2CC[C@H]1C[C@@H](OC(=O)C(CO)c1ccccc1)C2 (some centres unmarked) [Atropine] | – | – | + (a “+” to indicate whether a particular T2R receptor showed a positive response to a particular API) | + (a “+” to indicate whether a particular T2R receptor showed a positive response to a particular API) | + (a “+” to indicate whether a particular T2R receptor showed a positive response to a particular API) | + (a “+” to indicate whether a particular T2R receptor showed a positive response to a particular API)
10 | CN1CCN(CC(=O)N2c3ccccc3C(=O)Nc3cccnc32)CC1 [Pirenzepine] | – | – | + (a “+” to indicate whether a particular T2R receptor showed a positive response to a particular API) | + (a “+” to indicate whether a particular T2R receptor showed a positive response to a particular API) | + (a “+” to indicate whether a particular T2R receptor showed a positive response to a particular API) | + (a “+” to indicate whether a particular T2R receptor showed a positive response to a particular API)
